{
  "source": "patent US8178579B2",
  "about": "“Dioxanes and uses thereof” (President and Fellows of Harvard College, priority 2001, dated 2012)",
  "key": {"[1]": {"test_system": "HT-1080 cells", "test": "F-actin staining by fluorescence microscopy", "format": "cell-based", "details": "human fibrosarcoma cells, 20 μM, 39 h", "description": "(§1) Detection of acetylated α-tubulin and acetylated histones by immunofluorescence was performed as described in Example 6 above. For determining microtubule stability, A549 cells were treated as indicated, fixed in glutaraldehyde, and stained for acetylated α-tubulin and total α-tubulin in antibody dilution buffer (ADB, Tris-buffered saline (TBS), 0.15 M NaCl, 0.02 M Tris-Cl, pH 7.4, with 2% bovine serum albumin and 0.1% Triton-X 100). For cold-depolymerization, cells were incubated at 4° C. or 37° C. for an additional 90 minutes before fixation. […] For co-localization experiments, biotubacin (50 μM) treated A549 cells were fixed in 3.7% formaldehyde in TBS and processed as for detecting acetylated α-tubulin (See Example 6 above) with biotubacin detected using streptavidin-TR (1:500). HDAC6 was detected using a rabbit polyclonal antibody (1:250-1:750; C.M.G., unpublished data) under the conditions used to detect acetylated α-tubulin (See Example 6 above). Filamentous actin in HT-1080 cells was detected using TR-conjugated phalloidin (1 μg/mL), and depolymerized actin using FITC-conjugated deoxyribonuclease (10 μg/mL), following fixation in 3.7% formaldehyde in TBS. p58 (1:100) in NIH-3T3 cells was detected after fixation in 3.7% formaldehyde in TBS. […]"}, "[2]": {"test_system": "rat hippocampal neurons and astrocytes", "test": "cultured rat hippocampal neurons and astrocytes: viability, acetylated α-tubulin, synaptotagmin", "format": "cell-based", "description": "All cells were cultured at 37° C. in a humidified incubator supplemented with 5% carbon dioxide. Human A549 lung carcinoma cells, Human HT-1080 fibrosarcoma cells, BSC-1 African green monkey kidney epithelial cells (all from American Tissue Culture Collection) were cultured in Dulbecco's modified eagle medium (DMEM) supplemented with 10% fetal bovine serum, 100 units/mL penicillin G sodium, 100 μg/mL streptomycin sulfate, and 2 mM L-glutamine (DMEM+). Human TAg Jurkat cells and mouse ROSA26 embryonic stem cells (gift of E. Roberston, Harvard University) were cultured as described (12). Mouse NIH-3T3 wild-type (Neo), HDAC6, HDAC6 double mutant, and HDAC1 overexpressing cells (gift from C. Hubbert, Duke University) were cultured as described (C. Hubbert et al., Nature 417, 455 (2002)1). Hippocampal neurons were dissociated from 1-day old rats and grown in culture using methods as described (E. N. Star, D. J. Kwiatkowski and V. N. Murthy, Nat. Neurosci. 5, 239 (2002)). All animal experiments were approved by Harvard University's standing committee on the use of animals in research and training.\nas §1, with “above.” for “above. For determining microtubule stability, A549 cells were treated as indicated, fixed in glutaraldehyde, and stained for acetylated α-tubulin and total α-tubulin in antibody dilution buffer (ADB, Tris-buffered saline (TBS), 0.15 M NaCl, 0.02 M Tris-Cl, pH 7.4, with 2% bovine serum albumin and 0.1% Triton-X 100). For cold-depolymerization, cells were incubated at 4° C. or 37° C. for an additional 90 minutes before fixation.”"}},
  "note": "Entries after “also recorded” stand apart in the source; their conditions may differ.",
  "data": [
    {"smiles": "O=C(CCCCCCC(=O)Nc1ccc([C@@H]2OC(c3ccc(CO)cc3)C[C@H](CSc3nc(-c4ccccc4)c(-c4ccccc4)o3)O2)cc1)NO", "note": "(stereo partly shown) [tubacin]", "values": [
      {"measurement": "F-actin microfilaments / actin stress fibers", "setting": "[1]", "result": "increases F-actin microfilaments; also recorded: caused an increase in the abundance of actin stress fibers"},
      {"measurement": "viability and morphology of neurons and astrocytes", "setting": "[2]; 7-day old cultures: greater than 5 μM (10 μM, 48 h), 10-day old cultures: 1-2 μM, 96 h", "result": "decreased the viability and staining with synaptotagmin; also recorded: had no affect on the viability of 10-day old neurons and astrocytes; also recorded: caused morphological changes and cell death; also recorded: did not cause a significant decrease in the number of 10-day old rat hippocampal neurons or astrocytes"},
      {"measurement": "α-tubulin acetylation in neurons and astrocytes", "setting": "[2]; tubacin 1 μM 96 h or 10 μM 48 h, niltubacin 5 μM", "result": "increased the acetylation of α-tubulin; also recorded: increased α-tubulin acetylation in both cell types"},
      {"measurement": "synaptotagmin staining / synapses", "setting": "[2]; tubacin at least 1 μM for four days or 10 μM 48 h, niltubacin 5 μM", "result": "decreased the viability and staining with synaptotagmin; also recorded: had fewer synapses when compared to control cells"}
    ]}
  ]
}
